{"source": "patent US4820834A", "about": "“Benzodiazepine analogs” (priority 1987, dated 1989)", "key": {"[1]": {"target": "T1, Gastrin receptor (gastric glands) (Cavia porcellus, UniProt H0VZC5)", "T1 construct": "The washed guinea pig gastric glands prepared as above were resuspended; from tissue; host or cells: guinea pig gastric mucosal glands (male Hartley)", "T1 sequence (H0VZC5 1-426)": "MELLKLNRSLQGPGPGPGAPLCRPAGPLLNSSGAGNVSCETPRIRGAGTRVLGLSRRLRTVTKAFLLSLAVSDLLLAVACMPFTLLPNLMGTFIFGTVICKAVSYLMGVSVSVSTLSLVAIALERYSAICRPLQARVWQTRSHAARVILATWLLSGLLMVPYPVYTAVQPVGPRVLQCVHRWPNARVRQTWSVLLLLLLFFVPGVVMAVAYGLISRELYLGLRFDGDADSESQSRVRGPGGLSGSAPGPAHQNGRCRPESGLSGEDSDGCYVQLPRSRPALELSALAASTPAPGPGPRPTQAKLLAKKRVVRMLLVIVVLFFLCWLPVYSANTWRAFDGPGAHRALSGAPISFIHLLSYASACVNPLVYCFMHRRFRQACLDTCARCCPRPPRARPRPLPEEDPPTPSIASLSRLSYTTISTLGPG", "experiment": "Gastrin Receptor Binding in Guinea Pig Gastric Glands", "design": "species or system guinea pig (male Hartley)"}, "[2]": {"target": "T2, CCK receptor (brain, cerebral cortex) (Cavia porcellus, UniProt H0VZC5)", "T2 construct": "Cerebral cortex was dissected and used as a receptor source; from tissue; host or cells: guinea pig cerebral cortex membranes (male Hartley)", "T2 sequence (H0VZC5 1-426)": "T1 sequence (H0VZC5 1-426)", "experiment": "biochemical", "type": "binding, Male Hartley guinea pigs", "experimental": "2. CCK Recepto Binding (Brain)\nCCK-33 was radiolabeled and the binding was Performed according to the description for the Pancreas method with modifications according to Saito et al., J. Neurochem.\nCerebral cortex was dissected and used as a receptor source. Each gram of fresh guinea pig brain tissue was homogenized in 10 ml of Tris/Trizma buffer with a Brinkman polytron PT-10. The homogenates were centrifuged at 42,000 g for 15 minutes. Pellets were resuspended in Tris Buffer, centrifuged as above and resuspended in 200 volumes of binding assay buffer (10 mM N-2-hydroxyethyl-piperazine-N'-2-ethane sulfonic acid (HEPES), 5 mM MgCl2, 0.25 mg/ml bacitracin, 1 mM ethylene glycol-bis-(β-aminoethylether-N,N'-tetraacetic acid) (EGTA), and 0.4% bovine serum albumin (BSA)). […] All assays were run in duplicate or triplicate. The reaction mixtures were incubated at 25° C. for 2 hours and centrifuged in a Beckman Microfuge (4 minutes) immediately after adding 1 ml of ice-cold incubation buffer. The supernatant was aspirated and discarded, pellets were counted with a Beckman gamma 5000."}, "[3]": {"details": "^125 I-gastrin, 25° C., 30 minutes, read-out: IC50 ^125 I-Gastrin Gastric Glands"}, "[4]": {"details": "IC50 ^125 I-CCK Brain, guinea pig cerebral cortex, ^125 I-CCK-33, 25° C., 2 hours"}, "[5]": {"details": "IC50 ^125 I-Gastrin Gastric Glands, 25° C., 30 minutes"}}, "note": "Read-outs that look alike come from different tables or passages of the source.", "data": [{"smiles": "CC(C)(C)OC(=O)N[C@@H](Cc1ccccc1)C(=O)NC1N=C(c2ccccc2)c2ccccc2NC1=O", "note": "(mixture of isomers) [Example 82, 3(RS)-(2(S)-tert-Butoxycarbonylamino-3-phenylpropanoyl-amino)-1,3-dihydro-5-phenyl-2H-1,4-benzodiazepin-2-one]", "values": [{"measurement": "IC50", "setting": "[1]; [3]", "value": "> 100", "unit": "µM"}, {"measurement": "IC50", "setting": "[2]; [4]", "value": 12, "unit": "µM"}]}, {"smiles": "CN1C(=O)C(NC(=O)[C@H](Cc2ccccc2)NC(=O)OC(C)(C)C)N=C(c2ccccc2)c2ccccc21", "note": "(mixture of isomers) [Example 83, 3(RS)-(2(S)-tert-Butoxycarbonylamino-3-phenylpropanoyl-amino)-1,3-dihydro-1-methyl-5-phenyl-2H-1,4-benzodi-azepin-2-one]", "values": [{"measurement": "IC50", "setting": "[1]; [3]", "value": 26, "unit": "µM"}, {"measurement": "IC50", "setting": "[2]; guinea pig cerebral cortex, ^125 I-CCK-33, 25° C., 2 hours; read-out: IC50 ^125 I-CCK Brain", "value": 13, "unit": "µM"}]}, {"smiles": "O=C(NCC1N=C(c2ccccc2F)c2ccccc2NC1=O)OCc1ccccc1", "note": "(racemic) [Example 66, 1,3-Dihydro-5-(2'-fluorophenyl)-3(RS)-(benzyloxycarbonyl)aminomethyl-2H-1,4-benzodiazepin-2-one]", "values": [{"measurement": "IC50", "setting": "[1]; [5]", "value": 7.4, "unit": "µM"}, {"measurement": "IC50", "setting": "[2]; [4]", "value": 100, "unit": "µM"}]}, {"smiles": "O=C(NCC1N=C(c2ccccc2F)c2ccccc2NC1=O)c1ccsc1", "note": "(racemic) [Example 67, 1,3-Dihydro-5-(2'-fluorophenyl)-3(RS)-(3-thiophene-carbonyl)aminomethyl-2H-1,4-benzodiazepin-2-one]", "values": [{"measurement": "IC50", "setting": "[1]; [5]", "value": 47, "unit": "µM"}, {"measurement": "IC50", "setting": "[2]; [4]", "value": 100, "unit": "µM"}]}, {"smiles": "O=C(NCC1N=C(c2ccccc2F)c2ccccc2NC1=O)c1cc2ccccc2[nH]1", "note": "(racemic) [Example 68, 1,3-dihydro-5-(2-fluorophenyl)-3(RS)-(2-indolecarbonylaminomethyl)-2H-1,4-benzodiazepin-2-one]", "values": [{"measurement": "IC50", "setting": "[1]; [5]", "value": "> 100", "unit": "µM"}, {"measurement": "IC50", "setting": "[2]; [4]", "value": 30, "unit": "µM"}]}, {"smiles": "O=C1Nc2ccccc2C(c2ccccc2F)=NC1CNCC1N=C(c2ccccc2F)c2ccccc2NC1=O", "note": "(racemic) [Example 69, 1,3-Dihydro-3'-(RS)-[3'-(RS)-(1,3-dihydro-5-(2'-fluorophenyl)-2H-1,4-benzodiazepin-2-one)-3-yl]methylaminomethyl-5-(2'-fluorophenyl)-2H-1,4-benzodiazepin-2-one]", "values": [{"measurement": "IC50", "setting": "[1]; [5]", "value": 350, "unit": "µM"}, {"measurement": "IC50", "setting": "[2]; [4]", "value": "> 100", "unit": "µM"}]}, {"smiles": "O=C(NC1N=C(c2ccccc2)c2ccccc2NC1=O)c1cc2ccccc2[nH]1", "note": "(racemic) [Example 73, 3(RS)-1,3-Dihydro-(2-indolecarbonylamino)-5-phenyl-2H-1,4-benzodiazepin-2-one]", "values": [{"measurement": "IC50", "setting": "[1]; [5]", "value": 4, "unit": "µM"}, {"measurement": "IC50", "setting": "[2]; [4]", "value": 8, "unit": "µM"}]}, {"smiles": "O=C1Nc2ccccc2C(c2ccccc2)=NC1NCCc1c[nH]c2ccccc12", "note": "(racemic) [Example 74, 1,3-Dihydro-3(RS)-[2-(3-indolyl)ethyl]amino-5-phenyl-2H-1,4-benzodiazepin-2-one]", "values": [{"measurement": "IC50", "setting": "[1]; [5]", "value": "> 100", "unit": "µM"}, {"measurement": "IC50", "setting": "[2]; [4]", "value": 100, "unit": "µM"}]}, {"smiles": "O=C(CCc1c[nH]c2ccccc12)NC1N=C(c2ccccc2)c2ccccc2NC1=O", "note": "(racemic) [Example 75, 3(RS)-[3-(3-indolyl)propionylamino]-1,3-dihydro-5-phenyl-2H-1,4-benzodiazepin-2-one]", "values": [{"measurement": "IC50", "setting": "[1]; [5]", "value": 4.7, "unit": "µM"}, {"measurement": "IC50", "setting": "[2]; [4]", "value": 100, "unit": "µM"}]}, {"smiles": "O=C(Cc1c[nH]c2ccccc12)NC1N=C(c2ccccc2)c2ccccc2NC1=O", "note": "(racemic) [Example 76, 3(RS)-(3-indoleacetylamino)-1,3-dihydro-5-phenyl-2H-1,4-benzodiazepin-2-one]", "values": [{"measurement": "IC50", "setting": "[1]; [5]", "value": 32, "unit": "µM"}, {"measurement": "IC50", "setting": "[2]; [4]", "value": 11, "unit": "µM"}]}, {"smiles": "O=C(O)CN1C(=O)C(NC(=O)c2cc3ccccc3[nH]2)N=C(c2ccccc2)c2ccccc21", "note": "(racemic) [Example 78, 1-Carboxymethyl-1,3-dihydro-3(RS)-(2-indolearbonyl-amino)-5-phenyl-2H-1,4-benzodiazepin-2-one]", "values": [{"measurement": "IC50", "setting": "[1]; [5]", "value": 0.65, "unit": "µM"}, {"measurement": "IC50", "setting": "[2]; [4]", "value": 5.5, "unit": "µM"}]}, {"smiles": "CN1C(=O)C(NC(=O)c2ccc(Cl)cc2)N=C(c2ccccc2F)c2ccccc21", "note": "(racemic) [Example 80, 1,3-Dihydro-1-methyl-3(RS)-(4-chlorophenylcarbonyl)-amino-5-(2-fluoroohenyl)-2H-1,4-benzodiazeoin-2-one]", "values": [{"measurement": "IC50", "setting": "[1]; [3]", "value": 2.9, "unit": "µM"}, {"measurement": "IC50", "setting": "[2]; [4]", "value": 3.4, "unit": "µM"}]}, {"smiles": "CN1C(=O)C(NC(=O)c2cc3ccccc3[nH]2)N=C(c2ccccc2F)c2ccccc21", "note": "(racemic) [Example 81a, 1,3-Dihydro-5-(2-fluorophenyl)-3(RS)-(2-indolecarbonyl-amino)-1-methyl-2H-1,4-benzodiazepin-2-one]", "values": [{"measurement": "IC50", "setting": "[1]; [3]", "value": 0.19, "unit": "µM"}, {"measurement": "IC50", "setting": "[2]; [4]", "value": 0.3, "unit": "µM"}]}, {"smiles": "CN1C(=O)C(NC(=O)c2cc3ccccc3n2C)N=C(c2ccccc2F)c2ccccc21", "note": "(racemic) [Example 81b, 1,3-Dihydro-5-(2-fluorophenyl)-1-methyl-3(RS)-[2'-(1-methylindole)carbonylamino]-2H-1,4-benzodiazepin-2-one]", "values": [{"measurement": "IC50", "setting": "[1]; [5]", "value": 1.6, "unit": "µM"}, {"measurement": "IC50", "setting": "[2]; [4]", "value": 1, "unit": "µM"}]}, {"smiles": "O=C(CCCc1c[nH]c2ccccc12)NC1N=C(c2ccccc2)c2ccccc2NC1=O", "note": "(racemic) [Example 97, 3(RS)-[4-(3-Indole)butyrylamino]-1,3-dihydro-5-phenyl-2H-1,4-benzodiazepin-2-one]", "values": [{"measurement": "IC50", "setting": "[1]; [5]", "value": 200, "unit": "µM"}, {"measurement": "IC50", "setting": "[2]; [4]", "value": "> 100", "unit": "µM"}]}, {"smiles": "O=C(NCC1CNc2ccccc2C(c2ccccc2F)=N1)OCc1ccccc1", "note": "(racemic) [Example 98, 1,3-Dihydro-3(RS)-(benzyloxycarbonyl)aminomethyl-5-(2-fluorophenyl)-2H-1,4-benzodiazepine]", "values": [{"measurement": "IC50", "setting": "[1]; [5]", "value": 86, "unit": "µM"}, {"measurement": "IC50", "setting": "[2]; [4]", "value": 100, "unit": "µM"}]}, {"smiles": "O=C(NCC1CNc2ccccc2C(c2ccccc2F)=N1)c1ccsc1", "note": "(racemic) [Example 99, 1,3-Dihydro-3(RS)-[3'-(thiophene)carbonyl]amino-methyl-5-(2-fluorophenyl)-2H-1,4-benzodiazepine]", "values": [{"measurement": "IC50", "setting": "[1]; [5]", "value": 80, "unit": "µM"}, {"measurement": "IC50", "setting": "[2]; [4]", "value": 74, "unit": "µM"}]}, {"smiles": "O=C(NCC1CNc2ccccc2C(c2ccccc2F)=N1)c1cc2ccccc2[nH]1", "note": "(racemic) [Example 100, 1,3-Dihydro-3(RS)-(2'-indolecarbonyl)aminomethyl-5-(2-fluorophenyl)-2H-1,4-benzodiazepine]", "values": [{"measurement": "IC50", "setting": "[1]; read-out: IC50 ^125 I-Gastrin Gastric Glands, 25° C., 30 minutes", "value": 22, "unit": "µM"}, {"measurement": "IC50", "setting": "[2]; read-out: IC50 ^125 I-CCK Brain; guinea pig cerebral cortex, ^125 I-CCK-33, 25° C., 2 hours", "value": 34, "unit": "µM"}]}, {"smiles": "O=C(NC1N=C(c2ccccc2F)c2ccccc2NC1=O)c1cc2ccccc2[nH]1", "note": "(racemic) [Example 105, 1,3-Dihydro-5-(2-fluorophenyl)-3-(RS)-(2-indolecarbonylamino)-2H-1,4-benzodiazeoin-2-one]", "values": [{"measurement": "IC50", "setting": "[1]; [5]", "value": 4.6, "unit": "µM"}, {"measurement": "IC50", "setting": "[2]; [4]", "value": 3, "unit": "µM"}]}, {"smiles": "O=C(NC1N=C(c2ccccc2F)c2ccccc2NC1=O)c1ccc([N+](=O)[O-])cc1", "note": "(racemic) [Example 106, 1,3-Dihydro-3-(RS)-(4-nitrophenlcarbonyl)amino-5-(2-fluorophenyl)-2H-1,4-benzodiazepin-2-one]", "values": [{"measurement": "IC50", "setting": "[1]; [5]", "value": "> 10", "unit": "µM"}, {"measurement": "IC50", "setting": "[2]; [4]", "value": "> 50", "unit": "µM"}]}, {"smiles": "O=C(NC1N=C(c2ccccc2F)c2ccccc2NC1=O)c1ccsc1", "note": "(racemic) [Example 108, 1,3-Dihydro-5-(2-fluorophenyl)-3-(RS)-(3-thiophenecarbonylamino)-2H-1,4-benzodiazepin-2-one]", "values": [{"measurement": "IC50", "setting": "[1]; [5]", "value": "> 10", "unit": "µM"}, {"measurement": "IC50", "setting": "[2]; [4]", "value": "> 50", "unit": "µM"}]}, {"smiles": "CC(C)C[C@@H](NC(=O)OC(C)(C)C)C(=O)N1CC(C[C@H]2N=C(c3ccccc3F)c3ccccc3NC2=O)c2ccccc21", "note": "(stereo partly drawn) [Example 22, 1,3-Dihydro-5-(2-fluorophenyl)-3(R)-[3'-β-(1'-t-Boc-D-leucyl)-indolenyl]methyl-2H-1,4-benzodiazepin-2-one]", "values": [{"measurement": "IC50", "setting": "[2]; [4]", "value": "> 100", "unit": "µM"}]}, {"smiles": "CC(C)C[C@H](NC(=O)OC(C)(C)C)C(=O)N1CC(C[C@H]2N=C(c3ccccc3F)c3ccccc3NC2=O)c2ccccc21", "note": "(stereo partly drawn) [Example 23, 1,3-Dihydro-5-(2-fluorophenyl)-3(R)-[3'-α-(1'-t-Boc-L-leucyl)-indolenyl]methyl-2H-1,4-benzodiazepin-2-one]", "values": [{"measurement": "IC50", "setting": "[2]; [4]", "value": "> 100", "unit": "µM"}]}]}
